From patent publication US11419806B2, “Prebiotic oral care methods using a saccharide” (Colgate-Palmolive Company, priority 2013, dated 2022)

Assays:
Type in all cases: cell-based
Actinomyces naeslundii = assay: Twenty-four hour optical density growth in BHI; conditions: A naeslundii
Description: (§1) The extent of growth of the tested bacteria in response to selected saccharides (myo-inositol, D-lactitol, D-turanose and N-acetyl-D-mannosamine) was investigated by setting up growth curves in a nutritionally rich medium (brain heart infusion broth (BHI), Oxoid), over 24 hours. Late exponential growth phase liquid cultures were prepared by transferring the respective bacterium from blood agar plates to BHI and overnight incubation at 37° C. in an anaerobic atmosphere for A. viscosus, V. parvula, F. nucleatum, P. gingivalis, P. intermedia, T. forsythia, A. naeslundii, and C. sputigena, and in a 5% CO2 environment for S. salivarius, S. sanguinis, S. mitis, A. actinomycetemcomitans, S. mutans, S. sobrinus and S. gordonii. Overnight cultures were transferred to BHI and adjusted to a concentration of 1×10^7 CFU/ml (colony forming units per ml) by measuring the optical density at 600 nm (OD600) (BioRad SmartSpec 3000). For each strain, 200 μl of the bacterial suspension was added to a 96-well plate containing 20 μl of the respective saccharides. Final concentrations of the saccharides were set to 5, 10, 20 and 25 μmol/ml. […] Plates were incubated as previously described.
(§2) For each combination of bacterium/saccharide, and for each of their respective controls (i.e. the particular bacterium in the nutritionally rich medium with no saccharide), the optical density was measured at 630 nm (OD630) at 0 h and 24 h (Thermo Scientific Multiskan Ascent). Additionally, the OD630 for combinations of bacterium/saccharides grown in a 5% CO2 environment were also measured every hour between 0 h and 9 h.
(§3) The experiment was carried out on three different days (thus providing 3 biological replicas) and on each day the experiment was carried out in quadruple (thus providing 4 technical replicas) for each combination of bacterium with saccharide and for each control. For each day and for each combination, the average (mean) of the values obtained (as detailed above) for the four technical replicas was calculated to provide a single value for each combination on each day. The values shown in Tables 5a,b to 6a,b, below, are the average (mean) of the three single values obtained for each combination of bacterium with saccharide.

Actinomyces viscosus = assay: Twenty-four hour optical density growth in BHI; conditions: A viscosus
Description: as §1, §2, §3

[1] = tested on: Aggregatibacter actinomycetemcomitans; assay: Twenty-four hour optical density growth in BHI; conditions: A actinomycetemcomitans
Description: as §1, §2, §3

Capnocytophaga sputigena = assay: Twenty-four hour optical density growth in BHI; conditions: C sputigena
Description: as §1, §2, §3

Fusobacterium nucleatum = assay: Twenty-four hour optical density growth in BHI; conditions: F nucleatum
Description: as §1, §2, §3

Porphyromonas gingivalis = assay: Twenty-four hour optical density growth in BHI; conditions: P gingivalis
Description: as §1, §2, §3

Prevotella intermedia = assay: Twenty-four hour optical density growth in BHI; conditions: P intermedia
Description: as §1, §2, §3

S. sanguinis = assay: Twenty-four hour optical density growth in BHI
Description: as §1, §2, §3

Streptococcus gordonii = assay: Twenty-four hour optical density growth in BHI; conditions: S gordonii
Description: as §1, §2, §3

Streptococcus mitis = assay: Twenty-four hour optical density growth in BHI; conditions: S mitis
Description: as §1, §2, §3

Streptococcus mutans = assay: Twenty-four hour optical density growth in BHI; conditions: S mutans
Description: as §1, §2, §3

Streptococcus salivarius = assay: Twenty-four hour optical density growth in BHI; conditions: S salivarius
Description: as §1, §2, §3

Streptococcus sobrinus = assay: Twenty-four hour optical density growth in BHI; conditions: S sobrinus
Description: as §1, §2, §3

Tannerella forsythia = assay: Twenty-four hour optical density growth in BHI; conditions: T forsythia
Description: as §1, §2, §3

Veillonella parvula = assay: Twenty-four hour optical density growth in BHI; conditions: V parvula
Description: as §1, §2, §3

[2] = tested on: beneficial oral bacteria and pathogenic oral bacteria; assay: Twenty-four hour optical density, overall prebiotic assessment; conditions: concentrations of 5, 10, 20 and 25 μmol/ml
Excerpt: Substrates that were able to increase the growth (or maximal growth density or extent of growth) of at least one of the above beneficial bacteria while not or only minimally increasing the growth (or maximal growth density) of the pathogenic bacteria are considered to be prebiotic compounds.
The extent of growth of the tested bacteria in response to selected saccharides (myo-inositol, D-lactitol, D-turanose and N-acetyl-D-mannosamine) was investigated by setting up growth curves in a nutritionally rich medium (brain heart infusion broth (BHI), Oxoid), over 24 hours. Late exponential growth phase liquid cultures were prepared by transferring the respective bacterium from blood agar plates to BHI and overnight incubation at 37° C. in an anaerobic atmosphere for A. viscosus, V. parvula, F. nucleatum, P. gingivalis, P. intermedia, T. forsythia, A. naeslundii, and C. sputigena, and in a 5% CO2 environment for S. salivarius, S. sanguinis, S. mitis, A. actinomycetemcomitans, S. mutans, S. sobrinus and S. gordonii. […]
as §2
The experiment was carried out on three different days (thus providing 3 biological replicas) and on each day the experiment was carried out in quadruple (thus providing 4 technical replicas) for each combination of bacterium with saccharide and for each control. For each day and for each combination, the average (mean) of the values obtained (as detailed above) for the four technical replicas was calculated to provide a single value for each combination on each day. […]

## OC[C@H]1O[C@@](O)(CO)[C@@H](O[C@H]2O[C@H](CO)[C@@H](O)[C@H](O)[C@H]2O)[C@@H]1O [D-Turanose, α-D-glucopyranosyl-(1→3)-α-D-fructofuranose]
Actinomyces naeslundii; 5 μmol/ml
  extent of growth: maximal OD630 over 24 hr divided by maximal OD of control (control = 1): 0.9281
Actinomyces naeslundii; 10 μmol/ml
  extent of growth: maximal OD630 over 24 hr divided by maximal OD of control (control = 1): 0.9561
Actinomyces naeslundii; 20 μmol/ml
  extent of growth: maximal OD630 over 24 hr divided by maximal OD of control (control = 1): 0.9443
Actinomyces naeslundii; 25 μmol/ml
  extent of growth: maximal OD630 over 24 hr divided by maximal OD of control (control = 1): 0.9441
Actinomyces viscosus; 5 μmol/ml
  extent of growth: maximal OD630 over 24 hr divided by maximal OD of control (control = 1): 0.3631
Actinomyces viscosus; 10 μmol/ml
  extent of growth: maximal OD630 over 24 hr divided by maximal OD of control (control = 1): 0.3079
Actinomyces viscosus; 20 μmol/ml
  extent of growth: maximal OD630 over 24 hr divided by maximal OD of control (control = 1): 0.2558
Actinomyces viscosus; 25 μmol/ml
  extent of growth: maximal OD630 over 24 hr divided by maximal OD of control (control = 1): 0.2348
[1]; 5 μmol/ml
  extent of growth: maximal OD630 over 24 hr divided by maximal OD of control (control = 1): 0.7962
[1]; 10 μmol/ml
  extent of growth: maximal OD630 over 24 hr divided by maximal OD of control (control = 1): 0.8318
[1]; 20 μmol/ml
  extent of growth: maximal OD630 over 24 hr divided by maximal OD of control (control = 1): 0.8672
[1]; 25 μmol/ml
  extent of growth: maximal OD630 over 24 hr divided by maximal OD of control (control = 1): 0.8368
Capnocytophaga sputigena; 5 μmol/ml
  extent of growth: maximal OD630 over 24 hr divided by maximal OD of control (control = 1): 0.9568
Capnocytophaga sputigena; 10 μmol/ml
  extent of growth: maximal OD630 over 24 hr divided by maximal OD of control (control = 1): 0.9629
Capnocytophaga sputigena; 20 μmol/ml
  extent of growth: maximal OD630 over 24 hr divided by maximal OD of control (control = 1): 0.9558
Capnocytophaga sputigena; 25 μmol/ml
  extent of growth: maximal OD630 over 24 hr divided by maximal OD of control (control = 1): 0.9630
Fusobacterium nucleatum; 5 μmol/ml
  extent of growth: maximal OD630 over 24 hr divided by maximal OD of control (control = 1): 0.9458
Fusobacterium nucleatum; 10 μmol/ml
  extent of growth: maximal OD630 over 24 hr divided by maximal OD of control (control = 1): 0.9456
Fusobacterium nucleatum; 20 μmol/ml
  extent of growth: maximal OD630 over 24 hr divided by maximal OD of control (control = 1): 0.9285
Fusobacterium nucleatum; 25 μmol/ml
  extent of growth: maximal OD630 over 24 hr divided by maximal OD of control (control = 1): 0.9348
Porphyromonas gingivalis; 5 μmol/ml
  extent of growth: maximal OD630 over 24 hr divided by maximal OD of control (control = 1): 0.9385
Porphyromonas gingivalis; 10 μmol/ml
  extent of growth: maximal OD630 over 24 hr divided by maximal OD of control (control = 1): 0.9601
Porphyromonas gingivalis; 20 μmol/ml
  extent of growth: maximal OD630 over 24 hr divided by maximal OD of control (control = 1): 0.9183
Porphyromonas gingivalis; 25 μmol/ml
  extent of growth: maximal OD630 over 24 hr divided by maximal OD of control (control = 1): 0.9574
Prevotella intermedia; 5 μmol/ml
  extent of growth: maximal OD630 over 24 hr divided by maximal OD of control (control = 1): 1.1488
Prevotella intermedia; 10 μmol/ml
  extent of growth: maximal OD630 over 24 hr divided by maximal OD of control (control = 1): 1.1312
Prevotella intermedia; 20 μmol/ml
  extent of growth: maximal OD630 over 24 hr divided by maximal OD of control (control = 1): 1.0407
Prevotella intermedia; 25 μmol/ml
  extent of growth: maximal OD630 over 24 hr divided by maximal OD of control (control = 1): 0.9664
S. sanguinis; 5 μmol/ml
  extent of growth: maximal OD630 over 24 hr divided by maximal OD of control (control = 1): 0.8399
S. sanguinis; 10 μmol/ml
  extent of growth: maximal OD630 over 24 hr divided by maximal OD of control (control = 1): 0.8356
S. sanguinis; 20 μmol/ml
  extent of growth: maximal OD630 over 24 hr divided by maximal OD of control (control = 1): 0.8262
S. sanguinis; 25 μmol/ml
  extent of growth: maximal OD630 over 24 hr divided by maximal OD of control (control = 1): 0.7991
Streptococcus gordonii; 5 μmol/ml
  extent of growth: maximal OD630 over 24 hr divided by maximal OD of control (control = 1): 1.0397
Streptococcus gordonii; 10 μmol/ml
  extent of growth: maximal OD630 over 24 hr divided by maximal OD of control (control = 1): 1.0491
Streptococcus gordonii; 20 μmol/ml
  extent of growth: maximal OD630 over 24 hr divided by maximal OD of control (control = 1): 1.0248
Streptococcus gordonii; 25 μmol/ml
  extent of growth: maximal OD630 over 24 hr divided by maximal OD of control (control = 1): 1.0226
Streptococcus mitis; 5 μmol/ml
  extent of growth: maximal OD630 over 24 hr divided by maximal OD of control (control = 1): 1.4244
Streptococcus mitis; 10 μmol/ml
  extent of growth: maximal OD630 over 24 hr divided by maximal OD of control (control = 1): 1.4274
Streptococcus mitis; 20 μmol/ml
  extent of growth: maximal OD630 over 24 hr divided by maximal OD of control (control = 1): 1.3589
Streptococcus mitis; 25 μmol/ml
  extent of growth: maximal OD630 over 24 hr divided by maximal OD of control (control = 1): 1.2710
Streptococcus mutans; 5 μmol/ml
  extent of growth: maximal OD630 over 24 hr divided by maximal OD of control (control = 1): 1.0547
Streptococcus mutans; 10 μmol/ml
  extent of growth: maximal OD630 over 24 hr divided by maximal OD of control (control = 1): 0.9829
Streptococcus mutans; 20 μmol/ml
  extent of growth: maximal OD630 over 24 hr divided by maximal OD of control (control = 1): 0.9244
Streptococcus mutans; 25 μmol/ml
  extent of growth: maximal OD630 over 24 hr divided by maximal OD of control (control = 1): 0.9121
Streptococcus salivarius; 5 μmol/ml
  extent of growth: maximal OD630 over 24 hr divided by maximal OD of control (control = 1): 0.9483
Streptococcus salivarius; 10 μmol/ml
  extent of growth: maximal OD630 over 24 hr divided by maximal OD of control (control = 1): 0.9662
Streptococcus salivarius; 20 μmol/ml
  extent of growth: maximal OD630 over 24 hr divided by maximal OD of control (control = 1): 0.9401
Streptococcus salivarius; 25 μmol/ml
  extent of growth: maximal OD630 over 24 hr divided by maximal OD of control (control = 1): 0.9445
Streptococcus sobrinus; 5 μmol/ml
  extent of growth: maximal OD630 over 24 hr divided by maximal OD of control (control = 1): 1.1731
Streptococcus sobrinus; 10 μmol/ml
  extent of growth: maximal OD630 over 24 hr divided by maximal OD of control (control = 1): 1.1323
Streptococcus sobrinus; 20 μmol/ml
  extent of growth: maximal OD630 over 24 hr divided by maximal OD of control (control = 1): 1.0466
Streptococcus sobrinus; 25 μmol/ml
  extent of growth: maximal OD630 over 24 hr divided by maximal OD of control (control = 1): 1.0760
Tannerella forsythia; 5 μmol/ml
  extent of growth: maximal OD630 over 24 hr divided by maximal OD of control (control = 1): 0.9443
Tannerella forsythia; 10 μmol/ml
  extent of growth: maximal OD630 over 24 hr divided by maximal OD of control (control = 1): 0.9445
Tannerella forsythia; 20 μmol/ml
  extent of growth: maximal OD630 over 24 hr divided by maximal OD of control (control = 1): 0.9299
Tannerella forsythia; 25 μmol/ml
  extent of growth: maximal OD630 over 24 hr divided by maximal OD of control (control = 1): 0.9298
Veillonella parvula; 5 μmol/ml
  extent of growth: maximal OD630 over 24 hr divided by maximal OD of control (control = 1): 1.0000
Veillonella parvula; 10 μmol/ml
  extent of growth: maximal OD630 over 24 hr divided by maximal OD of control (control = 1): 0.9980
Veillonella parvula; 20 μmol/ml
  extent of growth: maximal OD630 over 24 hr divided by maximal OD of control (control = 1): 0.9904
Veillonella parvula; 25 μmol/ml
  extent of growth: maximal OD630 over 24 hr divided by maximal OD of control (control = 1): 1.0049
[2]
  prebiotic effects (extent of growth, threshold value 1.25): exhibited prebiotic effects
